Measured values from patent US7951530B2, “Cyclic maltosylmaltose, cyclic maltosymaltose-forming enzyme, their preparation and uses” (Kabushiki Kaisha Hayashibara Seibutsu Kagaku Kenkyujo, priority 2003, dated 2011).
Read-outs that look alike come from different tables or passages of the source.

What was measured:
[1] = Amino-carbonyl reaction with glycine; assay type: physicochemical; details: […] (w/v) saccharide, 0.5% (w/v) glycine, pH 8.0, 100° C.
Protocol: (§1) As a control, an aqueous solution containing maltose and glycine was prepared in the same manner using maltose except for the powdery hydrous crystalline CMM. Four milliliters each of the solution was put in a glass tube, sealed and then heated at 100° C. for 30, 60, or 90 min. After cooling the solutions, the degrees of coloring of the solutions were measured to estimate the degree of amino-carbonyl reaction. The degree of coloring was defined as an absorbance at 480 nm using a 1 cm-cell.

[2] = Amino-carbonyl reaction with polypeptone; assay type: physicochemical; details: 5% (w/v) saccharide, 5% (w/v) polypeptone, 120° C., blank subtracted
Protocol: as §1, with “polypeptone” for “glycine”, “120°” for “100°”, “reaction. As a blank test, a solution containing polypeptone only was heated in the same manner.” for “reaction.”, “cm-cell after subtracting the absorbance of the blank test.” for “cm-cell.”

CMM-forming enzyme [3] = assay: Action on various saccharides (substrate specificity, TLC); assay type: biochemical, Arthrobacter globiformis M6; set-up: key: “−” means “Not changed”; “+” means “Spot of substrate is slightly decreased and other products are detected”; “++” means “Spot of substrate is markedly decreased and other products are detected”; “+++” means “Spot of substrate is virtually disappeared and other products are detected”; details: substrate 2% (w/v), one unit/g-substrate enzyme, 40° C., pH 6.0, 24 hours, TLC before and after reaction
Protocol: Substrate specificity of CMM-forming enzyme of the present invention was investigated using various saccharides as substrates. Substrate solutions were prepared by dissolving maltose, maltotriose, maltotetraose, maltopentaose, maltohexaose, maltoheptaose, neotrehalose, trehalose, kojibiose, nigerose, […] isomaltose, isomaltotriose, panose, isopanose, maltitol, maltotriitol, α-, β- or γ-cyclodextrin, amylose, soluble starch, glycogen, pullulan or dextran into water. Each substrate solution was admixed with acetate buffer (pH 6.0) and CaCl2 to give final concentrations of 20 mM and 1 mM, respectively. […] Substrate concentration was set to 2% (w/v) and followed by the enzyme reaction at 40° C. and pH 6.0 for 24 hours. Action and the specificity of the enzyme on these saccharides were confirmed by analyzing the reaction mixture before and after the reaction by TLC described in Experiment 1.

CMM-forming enzyme [4] = assay: Effects of metal ions on the enzyme activity; assay type: biochemical, Arthrobacter globiformis M6; details: for Effect on CMM-forming enzyme activity: 1 mM
CMM-forming enzyme [5] = assay: Formation of CMM from various substrates; assay type: biochemical, Arthrobacter globiformis M6; details: substrate 1.0% (w/v), one unit/g-substrate enzyme, 40° C., pH 6.0, 48 hours, HPLC
Protocol: Formation of CMM by the action of CMM-forming enzyme of the present invention was investigated using various saccharides as substrates. Maltotriose, maltotetraose, maltopentaose, maltohexaose, amylose, soluble starch, “[…] #100”, a partial starch hydrolyzate commercialized by Matsutani Chemical Industries Co., Ltd., Hyogo, Japan, or glycogen from corn, commercialized by Q.P. Corporation, Tokyo, Japan, was prepared into a solution. […] The reaction was stopped by heating the reaction mixture at 100° C. for 10 min. After treating the reaction mixture with α-glucosidase and glucoamylase by the same manner in Experiment 1, the amount of CMM was determined by HPLC and CMM content of the reaction mixture was measured.

[6] = CMM-forming enzyme activity in the presence of 1 mM metal salt, None = 100

Molecule	Action (CMM-forming enzyme [3])	Relative activity (%) (CMM-forming enzyme [4]; [6])	further results
OC[C@H]1O[C@H](O[C@H]2[C@H](O)[C@@H](O)C(O)O[C@@H]2CO)[C@H](O)[C@@H](O)[C@@H]1O (mixture of isomers) [Maltose, maltose]	−		Degree of coloring (A480 nm) ([1]; heating time 0 min): 0.00; Degree of coloring (A480 nm) ([1]; heating time 30 min): 0.02; Degree of coloring (A480 nm) ([1]; heating time 60 min): 0.08; Degree of coloring (A480 nm) ([1]; heating time 90 min): 0.17; Degree of coloring (A480 nm) ([2]; heating time 0 min): 0.00; Degree of coloring (A480 nm) ([2]; heating time 30 min): 0.10; Degree of coloring (A480 nm) ([2]; heating time 60 min): 0.30; Degree of coloring (A480 nm) ([2]; heating time 90 min): 0.62
[Cl][Al]([Cl])[Cl] [AlCl3]		13	Effect on CMM-forming enzyme activity (CMM-forming enzyme [4]): inhibited
[Ba+2].[Cl-].[Cl-] [BaCl2]		90	
[Ca+2].[Cl-].[Cl-] [CaCl2]		99	
[Cl-].[Cl-].[Co+2] [CoCl2]			Relative activity (%) (CMM-forming enzyme [4]): 95%
[Cl][Cu][Cl] [CuCl2]		1	Effect on CMM-forming enzyme activity (CMM-forming enzyme [4]): remarkably inhibited
[Cl][Fe][Cl] [FeCl2]		95	
[Cl][Fe]([Cl])[Cl] [FeCl3]		32	Effect on CMM-forming enzyme activity (CMM-forming enzyme [4]): inhibited
[Cl][Hg][Cl] [HgCl2]		2	Effect on CMM-forming enzyme activity (CMM-forming enzyme [4]): remarkably inhibited
OC[C@H]1O[C@H](OC[C@H]2OC(O)[C@H](O)[C@@H](O)[C@@H]2O)[C@H](O)[C@@H](O)[C@@H]1O (some centres unmarked) [Isomaltose, isomaltose]	−		
OC[C@H]1O[C@H](OC[C@H]2O[C@H](OC[C@H]3OC(O)[C@H](O)[C@@H](O)[C@@H]3O)[C@H](O)[C@@H](O)[C@@H]2O)[C@H](O)[C@@H](O)[C@@H]1O (some centres unmarked) [Isomaltotriose, isomaltotriose]	−		
OC[C@H]1O[C@H](O[C@H]2[C@H](O)[C@@H](O)[C@@H](OC[C@H]3OC(O)[C@H](O)[C@@H](O)[C@@H]3O)O[C@@H]2CO)[C@H](O)[C@@H](O)[C@@H]1O (some centres unmarked) [Isopanose, isopanose]	−		
OC[C@H]1O[C@H](O[C@H]2C(O)O[C@H](CO)[C@@H](O)[C@@H]2O)[C@H](O)[C@@H](O)[C@@H]1O (some centres unmarked) [Kojibiose, kojibiose]	−		
OC[C@H]1O[C@H](O[C@H]2[C@H](O)[C@@H](O)[C@@H](O[C@H]3[C@H](O)[C@@H](O)[C@@H](O[C@H]4[C@H](O)[C@@H](O)C(O)O[C@@H]4CO)O[C@@H]3CO)O[C@@H]2CO)[C@H](O)[C@@H](O)[C@@H]1O (some centres unmarked) [Maltotetraose, maltotetraose]	+++		CMM content (%) (CMM-forming enzyme [5]): 27.3%
OC[C@@H](O)[C@@H](O[C@H]1O[C@H](CO)[C@@H](O[C@H]2O[C@H](CO)[C@@H](O)[C@H](O)[C@H]2O)[C@H](O)[C@H]1O)[C@H](O)[C@@H](O)CO [Maltotriitol, maltotriitol]	−		
[Cl-].[Cl-].[Mg+2] [MgCl2]		98	
[Cl][Mn][Cl] [MnCl2]		97	
OC[C@H]1O[C@@H](O[C@H]2O[C@H](CO)[C@@H](O)[C@H](O)[C@H]2O)[C@H](O)[C@@H](O)[C@@H]1O [Neotrehalose, neotrehalose]	−		
[Cl][Ni][Cl] [NiCl2]		90	

Molecule	Action (CMM-forming enzyme [3])	Relative activity (%) (CMM-forming enzyme [4]; [6])	further results
OC[C@H]1O[C@H](O[C@H]2[C@H](O)[C@@H](CO)OC(O)[C@@H]2O)[C@H](O)[C@@H](O)[C@@H]1O (some centres unmarked) [Nigerose, nigerose]	−		
OC[C@H]1O[C@H](OC[C@H]2O[C@H](O[C@H]3[C@H](O)[C@@H](O)C(O)O[C@@H]3CO)[C@H](O)[C@@H](O)[C@@H]2O)[C@H](O)[C@@H](O)[C@@H]1O (some centres unmarked) [Panose, panose]	−		
[Cl][Pb][Cl] [PbCl2]		36	Effect on CMM-forming enzyme activity (CMM-forming enzyme [4]): inhibited
[Cl-].[Cl-].[Sr+2] [SrCl2]		90	
OC[C@H]1O[C@H](O[C@H]2O[C@H](CO)[C@@H](O)[C@H](O)[C@H]2O)[C@H](O)[C@@H](O)[C@@H]1O [Trehalose, trehalose]	−		
[Cl-].[Cl-].[Zn+2] [ZnCl2]		73	
OC[C@H]1O[C@@H]2O[C@H]3[C@H](O)[C@@H](O)[C@@H](O[C@H]4[C@H](O)[C@@H](O)[C@@H](O[C@H]5[C@H](O)[C@@H](O)[C@@H](O[C@H]6[C@H](O)[C@@H](O)[C@@H](O[C@H]7[C@H](O)[C@@H](O)[C@@H](O[C@H]1[C@H](O)[C@H]2O)O[C@@H]7CO)O[C@@H]6CO)O[C@@H]5CO)O[C@@H]4CO)O[C@@H]3CO [α-Cyclodextrin, α-cyclodextrin]	−		
OC[C@H]1O[C@@H]2O[C@H]3[C@H](O)[C@@H](O)[C@@H](O[C@H]4[C@H](O)[C@@H](O)[C@@H](O[C@H]5[C@H](O)[C@@H](O)[C@@H](O[C@H]6[C@H](O)[C@@H](O)[C@@H](O[C@H]7[C@H](O)[C@@H](O)[C@@H](O[C@H]8[C@H](O)[C@@H](O)[C@@H](O[C@H]1[C@H](O)[C@H]2O)O[C@@H]8CO)O[C@@H]7CO)O[C@@H]6CO)O[C@@H]5CO)O[C@@H]4CO)O[C@@H]3CO [β-Cyclodextrin, β-cyclodextrin]	−		
OC[C@H]1O[C@@H]2O[C@H]3[C@H](O)[C@@H](O)[C@@H](O[C@H]4[C@H](O)[C@@H](O)[C@@H](O[C@H]5[C@H](O)[C@@H](O)[C@@H](O[C@H]6[C@H](O)[C@@H](O)[C@@H](O[C@H]7[C@H](O)[C@@H](O)[C@@H](O[C@H]8[C@H](O)[C@@H](O)[C@@H](O[C@H]9[C@H](O)[C@@H](O)[C@@H](O[C@H]1[C@H](O)[C@H]2O)O[C@@H]9CO)O[C@@H]8CO)O[C@@H]7CO)O[C@@H]6CO)O[C@@H]5CO)O[C@@H]4CO)O[C@@H]3CO [γ-Cyclodextrin, γ-cyclodextrin]	−		
amylose	+++		CMM content (%) (CMM-forming enzyme [5]): 41.8%; CMM content (%) (CMM-forming enzyme [5]; listed as amylose): about 42%
dextran	−		
glycogen	++		CMM content (%) (CMM-forming enzyme [5]): 29.5%; CMM content (%) (CMM-forming enzyme [5]; listed as glycogen): about 30%
maltoheptaose	+++		CMM content (%) (CMM-forming enzyme [5]): 36.6%
maltohexaose	+++		CMM content (%) (CMM-forming enzyme [5]): 41.6%
maltopentaose	+++		CMM content (%) (CMM-forming enzyme [5]): 24.4%
maltotriose	+		CMM content (%) (CMM-forming enzyme [5]): 0.6%; CMM content (%) (CMM-forming enzyme [5]; listed as maltotriose): about 0.6%
pullulan	−		
soluble starch	+++		CMM content (%) (CMM-forming enzyme [5]): 31.4%; CMM content (%) (CMM-forming enzyme [5]; listed as soluble starch): about 30%
